Publication PMC10535741, “Styrylpyridinium Derivatives for Fluorescent Cell Imaging” (Pharmaceuticals, 2023)
Like-named read-outs stand apart in the source and are kept apart here.

Test: Basal cytotoxicity, neutral red uptake (NRU) assay, with LD50 estimated from IC50
Type: cell-based
Details: mouse
Description: The evaluation of the in vitro cytotoxicity (IC50, half maximal inhibitory concentration) of the abovementioned compounds and their structural derivatives was assessed using the standard colorimetric 3-(4,5-dimethylthiazol-2-yl)-2,5-diphenyltetrazolium bromide (MTT) assay on two monolayer tumour cell lines, namely HT-1080 (human connective tissue fibrosarcoma) and MH-22A (mouse hepatocarcinoma). Additionally, the impact of the compound on non-cancerous “normal” cells—mouse fibroblasts (NIH3T3)—was estimated in order to measure the basal toxicity (LD50, median lethal dose). The obtained results were used for investigation of the structure–activity relationships and exploration of the effect of substituents on cellular response and toxicity. The estimated LD50 gives information regarding the compound properties and could potentially be used to select promising compounds by providing a starting dose for in vivo experiments.
To assess basal cytotoxicity, the neutral red uptake (NRU) assay was conducted following a modified version of the standard protocol of Stokes’ [71], as validated by the NICEATM-ECVAM study. The NRU cytotoxicity assay determines the ability of viable cells to incorporate and bind a supravital dye, neutral red (NR).
NIH3T3 cells (9000 cells/well) were cultured in 96-well plates in DMEM medium supplemented with 5% FBS for 24 h. Subsequently, the cells were exposed to the test compounds over a range of seven concentrations (1000 µg/mL, 316 µg/mL, 100 µg/mL, 31 µg/mL, 10 µg/mL, 3.0 µg/mL, and 1.0 µg/mL) for 24 h. Untreated cells were used as a control. After the incubation period, the medium was removed from all plates and a solution of NR was added (250 µL, 0.05 mg/mL NR in DMEM 24 h pre-incubated at 37 °C and then filtered before use through a 0.22 µm syringe filter). The plates were incubated for 3 h, followed by three washes with phosphate-buffered saline (PBS). The cells were then treated with a mixture of ethanol (50%) and water (49%) supplemented with 1% acetic acid. The absorbance of NR was measured using a spectrophotometer multiplate reader (Infinite M1000; Tecan Austria GmbH, Salzburg, Austria) at 540 nm. The optical density (OD) was then calculated using the following formula: ODtreated cells×100/ODcontrol cells.
The IC50 values were calculated using the program Graph Pad Prism® 3.0.
In vitro test results were employed to estimate the starting dose for acute oral systemic toxicity tests in rodents (LD50). The LD50 value was calculated using the in vitro IC50 value and a following formula: logLD50(mM/kg)=0.439×logIC50(mM)+0.621
The value was then converted to mg/kg and the compounds classified into four toxicity categories. Category 1 (highly toxic): LD50 ≤ 5 mg/kg; Category 2 (moderately toxic): 5 < LD50 ≤ 50 mg/kg; Category 3 (slightly toxic): 50 < LD50 ≤ 300 mg/kg; Category 4 (practically non-toxic): 300 < LD50 ≤ 2000 mg/kg.

[1] = estimated from in vitro NRU IC50 (24 h) by log LD50 = 0.439 x log IC50 + 0.621, read-out: Basal Cytotoxicity (NIH3T3) LD50
[2] = estimated from in vitro NRU IC50 (24 h), read-out: Basal cytotoxicity (NIH3T3) LD50 mM/kg

| SMILES | LD50 at 24 h [1] | LD50 at 24 h [2] | LD50 at 24 h (NIH3T3 cells, estimated from in vitro NRU IC50 (24 h) by log LD50 = 0.439 x log IC50 + 0.621, read-out: Basal Cytotoxicity (NIH3T3) LD50) |
| --- | --- | --- | --- |
| CCCCCCCCCCCCCCCC[n+]1ccc(C=CC=Cc2cc3c4c(c2)CCCN4CCC3)cc1.[Br-] [Compound 6e, 1-hexadecyl-4-(4-(2,3,6,7-tetrahydro-1H,5H-pyrido[3,2,1-ij]quinolin-9-yl)buta-1,3-dien-1-yl)pyridin-1-ium bromide] | 477 ± 11 mg/kg | 800 µmol/kg | – |
| CCCCCCCCCCCCCCCC[n+]1ccc(C=CC=Cc2ccc(OC)cc2)cc1.[Br-] [Compound 6c, 1-hexadecyl-4-(4-(4-methoxyphenyl)buta-1,3-dien-1-yl)pyridin-1-ium bromide] | 85 ± 7 mg/kg | 160 µmol/kg | – |
| CCCCCCCCCCCC[n+]1ccc(C=Cc2cc3c4c(c2)CCCN4CCC3)cc1.[Br-] [Compound 6d, 1-dodecyl-4-(2-(2,3,6,7-tetrahydro-1H,5H-pyrido[3,2,1-ij]quinolin-9-yl)vinyl)pyridin-1-ium bromide] | 169 ± 18 mg/kg | 300 µmol/kg | – |
| C(C=Cc1cc2c3c(c1)CCCN3CCC2)=Cc1cc[n+](CCC[n+]2ccc(C=CC=Cc3cc4c5c(c3)CCCN5CCC4)cc2)cc1.[Br-].[Br-] [Compound 7b, 1,1′-(propane-1,3-diyl)bis(4-(4-(2,3,6,7-tetrahydro-1H,5H-pyrido[3,2,1-ij]quinolin-9-yl)buta-1,3-dien-1-yl)pyridin-1-ium) dibromide] | 857 ± 13 mg/kg | – | – |
| C(=C\c1cc2c3c(c1)CCCN3CCC2)/c1cc[n+](CCC[n+]2ccc(/C=C/c3cc4c5c(c3)CCCN5CCC4)cc2)cc1 [Compound 7a] | 1100 ± 20 mg/kg | – | – |
| CCCCCCCCCCCC[n+]1ccc(C=Cc2cc(OC)c(OC)c(OC)c2)cc1.[Br-] [Compound 6a, 4-(3,4,5-trimethoxystyryl)-N-dodecylpyridinium bromide] | – | 500 µmol/kg | 249 ± 3 mg/kg |
